Test system: patients with schizophrenia or schizoaffective disorder
Experiment: MATRICS/MCCB cognitive battery; same 8-week adjunctive pregnenolone trial
Type: in vivo, human
Settings: for MATRICS/MCCB Composite score: head prints Raw Scores; for MATRICS/MCCB Composite score / MATRICS/MCCB BACS, symbol coding subtest raw score / MATRICS/MCCB Brief Visuospatial Memory Test-Rev. raw score / MATRICS/MCCB Category fluency test, animal naming raw score / MATRICS/MCCB Continuous Performance Test (CPT), Identical Pairs version-Average d′ raw score / MATRICS/MCCB Hopkins Verbal Learning Test raw score / MATRICS/MCCB Letter-Number Span test raw score / MATRICS/MCCB Mayer-Salovey-Caruso Emotional Intelligence Test, managing emotions branch raw score / MATRICS/MCCB Neuropsychological Assessment Battery, mazes subtest raw score / MATRICS/MCCB Trail Making Test, Part A raw score / MATRICS/MCCB Wechsler Memory Scale, 3rd ed., spatial span subtest raw score: mean, n = 9; for MATRICS/MCCB Composite, difference PG vs placebo in T-score change: column head prints Placebo
Procedure: Study Design and Subjects. Disclosed herein is a placebo-controlled, double-blind, parallel group, randomized trial of adjunctive pregnenolone for the treatment of cognitive and negative symptoms in patients with schizophrenia or schizoaffective disorder. […] Patients received a total of 6 study visits, which took place every two weeks. […] The trial was conducted at a single site, the Durham Veterans Affairs Medical Center in Durham, N.C. The protocol was approved by the local institutional review board and conducted under FDA Investigational New Drug (IND) #71,768. The ClinicalTrials.gov number for this study is NCT00560937.
Cognitive symptoms were assessed by the Brief Assessment of Cognition in Schizophrenia (BAGS; Keefe et al., 2004; Keefe et al., 2008), and the MATRICS Consensus Cognitive Battery (Nuechterlein & Green, 2006; Nuechterlein et al., 2008). It is believed that no clinical trial to date has reported both of these cognitive assessments within the same study. The BAGS and MATRICS batteries were administered two weeks following the screening visit (following the completion of the two-week placebo lead-in phase at Visit 2), and at two 4-week intervals thereafter (at midpoint following randomization at Visit 4 and at the final visit (Visit 6).
The BAGS cognitive battery utilizes the following assessments in the respective targeted domains (Keefe et al., 2004; Keefe et al., 2008): list learning (verbal memory), digit sequencing task (working memory), token motor task (motor speed), verbal fluency (processing speed), symbol coding (attention and processing speed), and the Tower of London test (executive functions/reasoning and problem solving). The MATRICS cognitive battery utilizes the following assessments: Trail Making Test, Part A and the symbol coding subtest of the BAGS (both assess speed of processing), the Hopkins Verbal Learning Test-Revised, immediate recall (three learning trials only) [verbal learning], the Wechsler Memory Scale, 3rd ed., spatial span subtest (working memory, nonverbal), the Letter-Number Span test (working memory, verbal), the Neuropsychological Assessment Battery, mazes subtest (reasoning and problem solving), the Brief Visuospatial Memory Test-Revised (visual learning), the Category Fluency Test (animal naming) [speed of processing], the Mayer-Salovey-Caruso Emotional Intelligence Test, managing emotions branch (social cognition), and the Continuous Performance Test, Identical Pairs version (attention/vigilance) Of note, the symbol coding subtest of the BAGS was administered only once per visit at Visits 2, 4, and 6, although it is a component of both the BAGS and MATRICS cognitive batteries, in order to avoid potentially confounding practice effects.

[1] = Week 0 to Week 8, listed as pregnenolone

CC(=O)[C@H]1CC[C@H]2[C@@H]3CC=C4C[C@@H](O)CC[C@]4(C)[C@H]3CC[C@]12C [PG, pregnenolone]
MATRICS/MCCB Composite score (Week 0 (baseline)): 29.00
MATRICS/MCCB BACS, symbol coding subtest raw score (Week 0 (baseline)): 36.89
MATRICS/MCCB Brief Visuospatial Memory Test-Rev. raw score (Week 0 (baseline)): 20.22
MATRICS/MCCB Category fluency test, animal naming raw score (Week 0 (baseline)): 18.33
MATRICS/MCCB Continuous Performance Test (CPT), Identical Pairs version-Average d′ raw score (Week 0 (baseline)): 1.42
MATRICS/MCCB Hopkins Verbal Learning Test raw score (Week 0 (baseline)): 18.56
MATRICS/MCCB Letter-Number Span test raw score (Week 0 (baseline)): 11.44
MATRICS/MCCB Mayer-Salovey-Caruso Emotional Intelligence Test, managing emotions branch raw score (Week 0 (baseline)): 86.89
MATRICS/MCCB Neuropsychological Assessment Battery, mazes subtest raw score (Week 0 (baseline)): 13.56
MATRICS/MCCB Trail Making Test, Part A raw score (Week 0 (baseline)): 42.11
MATRICS/MCCB Wechsler Memory Scale, 3rd ed., spatial span subtest raw score (Week 0 (baseline)): 13.11
MATRICS/MCCB Attention/vigilance domain, change in T-score (Week 0 to Week 8): 7.56
MATRICS/MCCB Attention/vigilance domain, difference PG vs placebo in T-score change (Week 0 to Week 8): 6.89
MATRICS/MCCB Composite, change in T-score (Week 0 to Week 8): 7.00
MATRICS/MCCB Reasoning and Problem Solving domain, change in T-score (Week 0 to Week 8): 6.22
MATRICS/MCCB Reasoning and Problem Solving domain, difference PG vs placebo in T-score change (Week 0 to Week 8): 0.00
MATRICS/MCCB Social cognition domain, change in T-score (Week 0 to Week 8): −0.89
MATRICS/MCCB Social cognition domain, difference PG vs placebo in T-score change (Week 0 to Week 8): −9.22
MATRICS/MCCB Speed of Processing domain, change in T-score (Week 0 to Week 8): 5.44
MATRICS/MCCB Speed of Processing domain, difference PG vs placebo in T-score change (Week 0 to Week 8): 0.78
MATRICS/MCCB Verbal learning domain, change in T-score (Week 0 to Week 8): 3.44
MATRICS/MCCB Verbal learning domain, difference PG vs placebo in T-score change (Week 0 to Week 8): 2.67
MATRICS/MCCB Visual learning domain, change in T-score (Week 0 to Week 8): 3.78
MATRICS/MCCB Visual learning domain, difference PG vs placebo in T-score change (Week 0 to Week 8): −3.78
MATRICS/MCCB Working memory domain, change in T-score (Week 0 to Week 8): 5.11
MATRICS/MCCB Working memory domain, difference PG vs placebo in T-score change (Week 0 to Week 8): 4.00
MATRICS/MCCB Composite, difference PG vs placebo in T-score change (Week 0 to Week 8): 0.00
MATRICS/MCCB Composite, difference PG vs placebo in T-score change [1]: no difference
MATRICS/MCCB Composite, change in T-score [1]: 7.00±8.87
MATRICS/MCCB Composite score (Week 4): 33.78
MATRICS/MCCB BACS, symbol coding subtest raw score (Week 4): 44.78
MATRICS/MCCB Brief Visuospatial Memory Test-Rev. raw score (Week 4): 21.33
MATRICS/MCCB Category fluency test, animal naming raw score (Week 4): 18.44
MATRICS/MCCB Continuous Performance Test (CPT), Identical Pairs version-Average d′ raw score (Week 4): 1.37
MATRICS/MCCB Hopkins Verbal Learning Test raw score (Week 4): 20.89
MATRICS/MCCB Letter-Number Span test raw score (Week 4): 12.67
MATRICS/MCCB Mayer-Salovey-Caruso Emotional Intelligence Test, managing emotions branch raw score (Week 4): 90.60
MATRICS/MCCB Neuropsychological Assessment Battery, mazes subtest raw score (Week 4): 15.67
MATRICS/MCCB Trail Making Test, Part A raw score (Week 4): 38.33
MATRICS/MCCB Wechsler Memory Scale, 3rd ed., spatial span subtest raw score (Week 4): 14.33
MATRICS/MCCB Composite score (Week 8): 36.00
MATRICS/MCCB BACS, symbol coding subtest raw score (Week 8): 38.67
MATRICS/MCCB Brief Visuospatial Memory Test-Rev. raw score (Week 8): 22.33
MATRICS/MCCB Category fluency test, animal naming raw score (Week 8): 20.44
MATRICS/MCCB Continuous Performance Test (CPT), Identical Pairs version-Average d′ raw score (Week 8): 1.91
MATRICS/MCCB Hopkins Verbal Learning Test raw score (Week 8): 21.00
MATRICS/MCCB Letter-Number Span test raw score (Week 8): 13.11
MATRICS/MCCB Mayer-Salovey-Caruso Emotional Intelligence Test, managing emotions branch raw score (Week 8): 86.10
MATRICS/MCCB Neuropsychological Assessment Battery, mazes subtest raw score (Week 8): 17.33
MATRICS/MCCB Trail Making Test, Part A raw score (Week 8): 34.33/
MATRICS/MCCB Wechsler Memory Scale, 3rd ed., spatial span subtest raw score (Week 8): 14.22
